Assay results from article PMC10218234, “Design, Synthesis and Antitumor Activity of 1H-indazole-3-amine Derivatives” (International Journal of Molecular Sciences, 2023).
“Also recorded” adds a separate entry of the source. Where two headings read alike, the source gives them in different places.

Legend:
K562 cells [1] = experiment: Cell cycle analysis (PI staining, flow cytometry); type: cell-based, human; settings: 24 h
Method: To further explore the antitumor properties of 6o, the effect of 6o on cell cycle distribution was evaluated. PI staining was used to perform cell cycle analysis.
To analyze the cell cycle, a PI apoptosis detection kit (Solarbio, Wuhan, China) was utilized. After K562 cells were seeded in 6-well plates for 24 h, compound 6o (10, 12 and 14 μM) or positive control was added to the plates for another 24 h. Then, cells were washed three times with PBS, and fixed with 70% ethanol at 4°C for overnight. After fixed, cells were again washed with PBS and incubated at 37 °C with 100 μL RNase A for 30 min. After this, cells were incubated with 400 μL PI for 30 min at 4 °C. After staining, cells were subjected to Flow Cytometry using Cell Quest software (BD, SN: E34297502014) and the PI fluorescence was recorded in the FL2 channel. Data were analyzed using FlowJo V10.

[2] = system: Bax and Bcl-2 expression in K562 cells; experiment: Western blotting of apoptosis-related proteins Bax and Bcl-2; type: cell-based, human; settings: K562, 48 h
Method: (§1) To quantify the effects of 6o on K562 cell apoptosis, K562 cells were treated with different concentrations of the compound 6o and followed by Annexin V-FITC/PI detection assay.
K562 cells were treated with compound 6o for 48 h, then, lysed in 1×RIPA lysis buffer (Solarbio) with proteinase (Solarbio) and phosphatase inhibitors (Solarbio) for 15 min on ice (proteinase: phosphatase inhibitors: 1 × RIPA lysis buffer = 1:1:100), scraped off from the plate and prepared cell lysates. These lysates were centrifuged at 1.2 × 10^4 rpm at 4 °C for 15 min to collect the supernatants and the protein concentration of each sample was quantified by the BCA protein assay kit (Beyotime, Shanghai, China). Protein was separated by SDS-PAGE and then transferred onto the PVDF membrane. After blocking with 5% skim milk for 2 h, befitting primary antibodies include Bax (Proteintech; Type: Rabbit; Cat No.: 50599-2-lg); Bcl-2 (Proteintech; Type: Mouse; Cat No.: 60178-1-lg); GAPDH (Proteintech; Type: Mouse; Cat No.: 60004-1-lg); β-actin (Proteintech; Type: Rabbit; Cat No.: 81115-1-RR); P53 (Cell signaling; Type: Rabbit; Cat No.: #2527) and MDM2 (Cell signaling; Type: Rabbit; Cat No.: #86934) were sealed in Antibody Dilution Buffer, and cocultivated with the PDF membrane at 4 °C for overnight. […]

A549 cells = experiment: MTT anti-proliferative assay, A549; type: cell-based; settings: Homo sapiens, Table 2, 48 h, read-out: IC50 ± SD, A549
Method: (§2) The antiproliferative activity of the target indazole derivatives was evaluated against a panel of human cancer cell lines (human chronic myeloid leukemia cell lines K562; human lung cancer cell lines A549; human prostate cancer cell lines PC-3; human hepatoma cell lines HepG-2) in vitro, and human embryonic kidney cell lines HEK-293 were used to evaluate the cytotoxicity of a normal cell with high activity derivatives by MTT assay. Moreover, 5-fluorouracil (5-Fu), a broad-spectrum drug antitumor drug with therapeutic effects on various cancers, was used as a positive control.
(§3) Lung (A549), chronic myeloid leukemia (K562), prostate (PC3), and live (Hep-G2) cells were purchased from the Cell Bank of the Chinese Academy of Sciences (Kunming, China). A549, K562, and PC-3 cells were cultured in RPMI-1640 medium and the liver cells Hep-G2 were cultured in MEM medium. All mediums were supplemented with 10% FBS, 100 μg/mL penicillin and 100 μg/mL streptomycin. All cells were cultivated in a 5% CO2 incubator at 37 °C.
(§4) To investigate the anticancer activity of indazole derivatives, A549, K562, PC3, and Hep-G2 cells were treated with targets compounds respectively for 48 h in a range of concentrations (from 0.625 to 10 μM) and subjected to a proliferation assay using the MTT assay. Exponentially growing cells were seeded at a density of 5000 cells per well in 96-well plates containing 100 μL of fresh growth medium. After allowing the cells to attach for 24 h, target compounds were added. After incubation for 48 h, viable cells were stained with MTT (0.5 mg/mL) for 4 h, and the produced formazan crystals were dissolved with 150 µL of dimethyl sulfoxide. Absorbance was measured at 490 nm using an automated microplate reader (Tecan, Infinite M200 Pro, Männedorf, Switzerland). The relative cell viability was calculated according to the following equation: Cell viability%=experimental OD value/control OD value×100%Cell inhibition%=control OD value−experimental OD value/control OD value×100%
(§5) Cell inhibition%=control OD value−experimental OD value/control OD value×100%

[3] = system: p53 and MDM2 expression in K562 cells; experiment: Western blotting of p53 and MDM2; type: cell-based, human; settings: K562, 48 h
Method: Loss of p53 activity by deletion, mutation, or MDM2 over-expression, is the most common event in the development and progression of cancer. To confirm the ability of 6o to inhibit the p53 and MDM2 interaction in K562, the expression levels of these two proteins were evaluated by Western blotting assay after 48 h of 6o treatment. […] In summary, 6o could change the expression of p53 and MDM2, disrupting the balance of intracellular p53 protein levels, and eventually inducing apoptosis of K562.
K562 cells were treated with compound 6o for 48 h, then, lysed in 1×RIPA lysis buffer (Solarbio) with proteinase (Solarbio) and phosphatase inhibitors (Solarbio) for 15 min on ice (proteinase: phosphatase inhibitors: 1 × RIPA lysis buffer = 1:1:100), scraped off from the plate and prepared cell lysates. These lysates were centrifuged at 1.2 × 10^4 rpm at 4 °C for 15 min to collect the supernatants and the protein concentration of each sample was quantified by the BCA protein assay kit (Beyotime, Shanghai, China). Protein was separated by SDS-PAGE and then transferred onto the PVDF membrane. […]

PC-3 cells = experiment: MTT anti-proliferative assay, PC-3; type: cell-based; settings: Homo sapiens, PC-3, 48 h, Table 2, read-out: IC50 ± SD, PC-3
Method: as §2, §3
as §4, with “Exponentially” for “To investigate the anticancer activity of indazole derivatives, A549, K562, PC3, and Hep-G2 cells were treated with targets compounds respectively for 48 h in a range of concentrations (from 0.625 to 10 μM) and subjected to a proliferation assay using the MTT assay. Exponentially”
as §5

[4] = MTT cytotoxicity to normal cells, HEK-293; type: cell-based, human; settings: human, HEK-293 cells (normal human embryonic kidney cells); normal cell HEK-293; MTT; read-out: IC50 ± SD, HEK-293
Method: as §2, §4, §5

HEK-293 cells = experiment: MTT cytotoxicity to normal cells, HEK-293; type: cell-based, human; settings: IC50 in HEK-293 divided by IC50 in K562
Method: as §2, §4, §5

K562 cells [5] = experiment: MTT anti-proliferative assay, K562; type: cell-based; settings: Homo sapiens
Method: as §2, §3, §4, §5

Hep-G2 cells = experiment: MTT anti-proliferative assay, Hep-G2; type: cell-based; settings: Homo sapiens, HepG2, 48 h, Table 2, 48 h, read-out: IC50 ± SD, Hep-G2
Method: as §2, §3, §4, §5

K562 cells [6] = experiment: Annexin V-FITC/PI cell apoptosis detection assay (flow cytometry); type: cell-based, human; settings: 48 h
Method: as §1
Activation of tumor cell apoptosis plays an important role in treatment cancer. To investigate whether apoptosis could underlie the anticancer activity of 6o, K562 cells were treated with 6o (0, 10, 12 or 14 μM) for 48 h and the percentage of apoptosis was determined by flow cytometry, Annexin V-FITC/PI Apoptosis Detection Kit (BD, Franklin Lakes, NJ, USA) was used. Cells (1 × 10^6/mL per well) were plated in 6-well culture plates and grown for 24 h. After treatment with compound 6o for 48 h, the collected cells were washed two times with ice-cold PBS, counted, and 100 μL of cell suspension with a density of 1 × 10^6 cells/mL was prepared, then incubated with 5 μL Annexin V-FITC and 5 μL Propidium iodide (PI) in the dark for 15 min. After 15 min of incubation and added 400 μL of 1 × binding buffer, and use Cell Quest software (BD, SN: E34297502014) to perform detection on Flow Cytometry (BD, Franklin Lakes, NJ, USA). Data were analyzed using FlowJo V10.

Work on `O=C(CN1CCN(c2ccc(C(F)(F)F)cc2)CC1)Nc1n[nH]c2ccc(-c3ccc(Cl)c(F)c3)cc12` [compound 6o] yielded a melting point of 183 to 185 °C, a G0/G1 population (K562 cells [1]; K562, 10 μM) of 31.8% and a G0/G1 population (K562 cells [1]; K562, 12 μM) of 36.4%. The G0/G1 population (K562 cells [1]; K562, 14 μM) was 41.1%, the “proportion of S phase cells” value (K562 cells [1]; K562, 10, 12 and 14 μM, vs negative control) was “decreased significantly” and the “expression of Bax (pro-apoptotic protein)” value [2] was “increase”. The “expression of Bcl-2 (apoptosis-inhibiting protein)” value [2] was “decreased; also recorded: reduce”, the IC50 (A549 cells) was 6.73 ± 1.03 µM and the “expression level of p53 protein” value [3] was “up-regulate”. The “expression of MDM2 protein” value [3] was “reduce”, the IC50 (PC-3 cells) was 8.34 ± 1.55 µM and the IC50 at 48 h [4] was 33.2 ± 3.83 µM. The “Selectivity index (SI) for K562 cells” value (HEK-293 cells) was 6.45, the IC50 (K562 cells [5]; Table 2, 48 h, read-out: IC50 ± SD, K562) was 5.15 ± 0.55 µM and the IC50 (K562 cells [5]; Table 3, read-out: IC50 ± SD, K562) was 5.15 ± 0.55 µM. The IC50 (Hep-G2 cells) was 7.37 ± 0.24 µM, the “total apoptosis rate (early and late apoptosis)” value (“total apoptosis rate” below) (K562 cells [6]; K562, 10 μM) was 9.64% and the “total apoptosis rate” value (K562 cells [6]; K562, 12 μM) was 16.59%. The “total apoptosis rate” value (K562 cells [6]; K562, 14 μM) was 37.72%.
